The source of these data is patent US20180263860A1, “DELIVERY SYSTEMS FOR APPLICATION OF ANTIBIOTIC GEL FORMULATION” (Indiana University Research and Technology Corporation, priority 2015, published 2018).

In data set [1] the test system is three-week old E. faecalis biofilm. In words: Biofilm disruption assay on infected dentin samples (Example 2). Format: cell-based, Enterococcus faecalis. The note with it: immersion for 5 minutes. As for the experimental part:
Unidentified intact human teeth were collected, stored in 0.1% thymol solution at 4° C., and used within 6 months after obtaining local Institutional Review Board approval (IRB #1409251353). A standardized radicular dentin sample (4×4×1 mm^3) was obtained from each root using a slow diamond saw (IsoMet, Buehler, Lake Bluff, Ill.) under continuous distilled water irrigation. The pulpal side of each specimen was wet-finished with silicon carbide abrasive papers (500-2400 grit, Struers, Cleveland, Ohio). The polished samples were then sonicated in deionized water for 3 minutes, washed with sterile water, wrapped individually with moist cotton pellets, placed in Whirl-pak bags (Sigma-Aldrich, St Louis, Mo.), gas sterilized with ethylene oxide, and stored at 4° C. until used. E. faecalis (ATCC 29212) was grown initially on anaerobic blood agar plates (CDC, BioMerieux, Durham, N.C.). […] Dentin samples were placed individually in separate wells of a 96-sterile well plate (Fisherbrand, Fischer Scientific) with the pulpal side facing upwards. Then, 10 μl of an overnight E. faecalis culture (10^6 CFU/mL) dispersed in 190 μL of fresh BHI-YE growth media was added to each dentin specimen. […] The CFUs/mL were quantified using an automated colony counter (Synbiosis, Inc., Frederick, Md.). Summary statistics were calculated for the log-transformed data from each group. […]

Data set [2] concerns stem cells from apical papillae and dental pulp stem cells. The settings on record: 2% CHX; recent in vitro studies; cited from earlier work.

“Also recorded” adds a separate entry of the source.

Consider `N=C(NCCCCCCNC(=N)NC(=N)Nc1ccc(Cl)cc1)NC(=N)Nc1ccc(Cl)cc1.O=C(O)[C@H](O)[C@@H](O)[C@H](O)[C@H](O)CO.O=C(O)[C@H](O)[C@@H](O)[C@H](O)[C@H](O)CO` [CHX], for which the “antibiofilm effect (log CFU/mL)” value in data set [1] (2% CHX) was “significant reduction in E. faecalis biofilm; also recorded: nearly eliminate the bacterial biofilm”. Further, the “effects on survival and attachment of stem cells from apical and dental pulp” value in data set [2] is given as “highly unfavorable effects”.

Turning to `OCl` [NaOCl, sodium hypochlorite], the “antibiofilm effect (log CFU/mL)” value in data set [1] (1.5% NaOCl) was “significant reduction and complete eradication of E. faecalis biofilm”.
